The record followed here is patent publication US11066634B2, “Culture device and methods for enumerating mold colonies” (3M INNOVATIVE PROPERTIES COMPANY, priority 2013, dated 2021).

For assay [1], the system named is Aspergillus niger. Briefly: Aspergillus niger on PYM plates with EGTA in the inoculum (Example 13). Type of assay: cell-based. The conditions noted are these: for Reduction in colony area / Colony area: 48 hours; for 48 hour count / 72 hour count: total for three plates. Here is the method: A 4-millimolar solution of ethylene glycol tetraacetic acid (EGTA) was prepared by dissolving 15.2 milligrams of EGTA in 10 milliliters of Butterfield's buffer. Serial two-fold dilutions were prepared to provide solutions containing 2 millimolar and 1 millimolar EGTA, respectively. “EGTA”, as used in the Examples, refers to ethylene glycol-bis(2-aminoethylether)-N,N,N′,N′-tetraacetic acid (67-42-5) obtained from Sigma-Aldrich (St. Louis, Mo.). A suspension of Aspergillus niger was diluted and added to the solutions as described in Example 12 to provide final cell concentrations of approximately 5 cfu per ml. Three replicate devices were prepared by inoculating 1 milliliter of the mold suspensions to PYM plates according to the manufacturer's instructions. Images of the plates were obtained after 48 hours and 72 hours of incubation, respectively. […] The average colony size after 48 hours of incubation was determined by imaging the plates and analyzing the images as described above.

Assay [2] deals with Aspergillus niger.
Protocol: A diluted suspension of Aspergillus niger was prepared as described in example 1. A 1 millimolar solution of EDTA was prepared by dissolving 3.7 milligrams of EDTA in 10 milliliters of Butterfield's buffer. The Aspergillus niger diluted suspension was added to the EDTA/Butterfield's to provide a cell concentration of approximately 5 cfu per milliliter. Five replicate devices were prepared by adding one milliliter of the inoculum to PYM plates according to the manufacturer's instructions. A set of control plates was prepared from a 5 cfu per ml solution of Aspergillus niger containing no EDTA.
In the next assay the test system is C. glabrata. The note with it: for Colony area (mean ± standard deviation): 91 hours.
In assay [3] the test system is Aspergillus niger (ATCC #16484). The conditions noted are these: for Colony Size Reduction: 1 mM vs 0 mM EDTA. Here is the method: Fat free skim milk was purchased from a local grocery store. 3.7 milligrams of disodium EDTA dihydrate was added to 10 milliliters of the fat-free skim milk to provide a final concentration of 1 millimolar EDTA. A suspension of Aspergillus niger (ATCC #16484) was diluted in Butterfields buffer to a concentration of approximately 500 colony forming units per milliliter. 100 microliters of the diluted suspension was added to the milk sample. After briefly vortexing, 1 milliliter of the milk sample containing the mold was used to inoculate PYM plates according to the manufacturer's instructions. The PYM plates were incubated at 30° C. for 48 hours, followed by imaging and colony size analysis as described above. A control sample (without milk) was also prepared in Butterfield's buffer.

In assay [4] the test system is mold species shown in Table 7. The note with it: for some species; EDTA concentrations higher than 1 wt % of the dry powder coatings. Here is the method: The mold species shown in Table 7 were serially diluted, inoculated, incubated, imaged, and analyzed as described for the A. niger cultures.
The subject of a further assay is C. guillermondi. The conditions noted are these: for Colony area (mean ± standard deviation): 91 hours.
The next assay concerns R. mucilaginosa. The conditions noted are these: for Colony area (mean ± standard deviation): 91 hours.
The mark [5] stands for this setting: EDTA at concentrations below 1%.
Setting [6] is: EDTA concentrations higher than 1%.

Like-named read-outs stand apart in the source and are kept apart here.

Protocol for C. glabrata: (§1) Thin film culture devices were prepared as described above. Three yeast strains were serially diluted from a frozen stock to provide a final concentration of approximately 100 CFU per ml. The thin film culture devices were inoculated, incubated for 91 hours, imaged, and analyzed as described above.
Protocol for C. guillermondi: as §1
Protocol for R. mucilaginosa: as §1

Regarding `O=C(O)CN(CCOCCOCCN(CC(=O)O)CC(=O)O)CC(=O)O` [EGTA, ethylene glycol-bis(2-aminoethylether)-N,N,N′,N′-tetraacetic acid], the figures for the “Reduction in colony area” value with Aspergillus niger [1] (1 mM EGTA vs 0 mM control), in the assay on Aspergillus niger [1] (2 mM EGTA vs 0 mM control) and in the assay on Aspergillus niger [1] (4 mM EGTA vs 0 mM control) were −9%, −43% and −78%, respectively. Also, the Colony area amounted to 24107 pixels in the assay with Aspergillus niger [1] (1 mM EGTA), 15177 pixels in the assay on Aspergillus niger [1] (2 mM EGTA) and 5772 pixels in the assay on Aspergillus niger [1] (4 mM EGTA). Also, the 48 hour count in the assay on Aspergillus niger [1] (1 mM EGTA) is reported as 12; with Aspergillus niger [1] (2 mM EGTA) it was 14; in the assay on Aspergillus niger [1] (4 mM EGTA) it was 11. Besides, the 72 hour count in the assay with Aspergillus niger [1] (1 mM EGTA) was determined as 12; in the assay on Aspergillus niger [1] (2 mM EGTA) it was 14; in the assay with Aspergillus niger [1] (4 mM EGTA) it was 11.
In the case of “disodium ethylenediamine tetraacetic acid dihydrate [EDTA]”, in the assay with Aspergillus niger [2] (1 mM EDTA in inoculum, 48 hours), the Colony area is listed as 1492 pixels. The “CFUs (48 hr)” value in the assay with Aspergillus niger [2] (1 mM EDTA in inoculum, 48 hr) is 15. Besides, the “CFUs (72 hr)” value with Aspergillus niger [2] (1 mM EDTA in inoculum, 72 hr) is 16. In addition, in the assay with Aspergillus niger [2] (1 mM EDTA, after 48 hours of incubation), the “average colony diameter smaller than the control plates” value is given as “approximately 20 fold”. The “Colony area (mean ± standard deviation)” value in the assay on C. glabrata (0.5% EDTA) worked out at 487 ± 300 pixels; in the assay on C. glabrata (1% EDTA), 308 ± 201 pixels; in the assay with C. glabrata (2.3% EDTA), 0 ± 0 pixels; in the assay with C. glabrata (4.2% EDTA), 0 ± 0 pixels; in the assay on C. guillermondi (0.5% EDTA) it was 490 ± 129 pixels; in the assay on C. guillermondi (1% EDTA) it was 201 ± 119 pixels. For the same compound, the “Colony area (mean ± standard deviation)” value is recorded as 381 ± 140 pixels in the assay on C. guillermondi (2.3% EDTA); 162 ± 92 pixels in the assay on C. guillermondi (4.2% EDTA); 251 ± 95 pixels with R. mucilaginosa (0.5% EDTA); 148 ± 76 pixels with R. mucilaginosa (1% EDTA); 0 ± 0 pixels in the assay on R. mucilaginosa (2.3% EDTA); 0 ± 0 pixels in the assay with R. mucilaginosa (4.2% EDTA). Also, the “effect on colony size” value in the assay on C. glabrata (setting [5]), with C. guillermondi (setting [5]) and in the assay on R. mucilaginosa (setting [5]) was “not affected” throughout. For the same compound, the detection of colonies result in the assay on C. glabrata (setting [6]) and in the assay on R. mucilaginosa (setting [6]) was “not detected” in each case. The “Colony Area (1 mM EDTA)” value in assay [3] (Buffer Control (Butterfield's buffer, without milk), 48 hours) turned out to be 3276; in assay [3] (Skim Milk sample, 30° C. for 48 hours), 3789. Further, the “Colony Size Reduction” value in assay [3] (Buffer Control, 48 hours) is recorded as −91%; in assay [3] (Skim Milk sample, 48 hours), −86%. The “delay in the appearance of visible colonies” value in assay [4] is “a delay in the appearance of visible colonies was observed”.
